Measured values taken from PubChem BioAssay (NCI).
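Method: 48-hour compound exposure of cells in 96-well plates, five concentrations, linear interpolation of endpoints. GI50 = concentration required for 50% inhibition of growth. The concentration for full growth arrest is given as TGI.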

Tests used:
Assay in all cases: NCI anticancer screen, dose series, 48 h
786-0 renal = test system: 786-0 renal
A498 renal = test system: A498 renal
A549 NSCLC = test system: A549 NSCLC
ACHN renal = test system: ACHN renal
BT-549 breast = test system: BT-549 breast
CAKI-1 renal = test system: CAKI-1 renal
CCRF-CEM leukemia = test system: CCRF-CEM leukemia
COLO 205 colon = test system: COLO 205 colon
DU-145 prostate = test system: DU-145 prostate
EKVX NSCLC = test system: EKVX NSCLC
HCC-2998 colon = test system: HCC-2998 colon
HCT-116 colon = test system: HCT-116 colon
HCT-15 colon = test system: HCT-15 colon
HL-60(TB) leukemia = test system: HL-60(TB) leukemia
HOP-62 NSCLC = test system: HOP-62 NSCLC
HOP-92 NSCLC = test system: HOP-92 NSCLC
HS 578T breast = test system: HS 578T breast
HT29 colon = test system: HT29 colon
IGROV1 ovarian = test system: IGROV1 ovarian
K-562 leukemia = test system: K-562 leukemia
KM12 colon = test system: KM12 colon
LOX IMVI melanoma = test system: LOX IMVI melanoma
M14 melanoma = test system: M14 melanoma
MALME-3M melanoma = test system: MALME-3M melanoma
MDA-MB-231 breast = test system: MDA-MB-231 breast
MDA-MB-435 = test system: MDA-MB-435
MOLT-4 leukemia = test system: MOLT-4 leukemia
NCI-H226 lung = test system: NCI-H226 lung
NCI-H23 lung = test system: NCI-H23 lung
NCI-H460 lung = test system: NCI-H460 lung
NCI/ADR-RES ovarian = test system: NCI/ADR-RES ovarian
OVCAR-3 ovarian = test system: OVCAR-3 ovarian
OVCAR-4 ovarian = test system: OVCAR-4 ovarian
OVCAR-5 ovarian = test system: OVCAR-5 ovarian
OVCAR-8 ovarian = test system: OVCAR-8 ovarian
PC-3 prostate = test system: PC-3 prostate
RPMI-8226 leukemia = test system: RPMI-8226 leukemia
RXF 393 renal = test system: RXF 393 renal
SF-268 CNS = test system: SF-268 CNS
SF-295 CNS = test system: SF-295 CNS
SF-539 CNS = test system: SF-539 CNS
SK-MEL-2 melanoma = test system: SK-MEL-2 melanoma
SK-MEL-28 melanoma = test system: SK-MEL-28 melanoma
SK-MEL-5 melanoma = test system: SK-MEL-5 melanoma
SK-OV-3 ovarian = test system: SK-OV-3 ovarian
SN12C renal = test system: SN12C renal
SNB-19 CNS = test system: SNB-19 CNS
SNB-75 CNS = test system: SNB-75 CNS
SR leukemia = test system: SR leukemia
SW-620 colon = test system: SW-620 colon
TK-10 renal = test system: TK-10 renal
U251 CNS = test system: U251 CNS
UACC-257 melanoma = test system: UACC-257 melanoma
UACC-62 melanoma = test system: UACC-62 melanoma
UO-31 renal = test system: UO-31 renal

C=C1C(=O)O[C@H]2[C@H]1CC/C(Cn1cc(-c3ccc(F)cc3)nn1)=C\CC[C@@]1(C)O[C@@H]21
GI50 (786-0 renal): 1.06 µM | TGI (786-0 renal): 2.36 µM | GI50 (A498 renal): 1.82 µM | TGI (A498 renal): 3.91 µM | GI50 (A549 NSCLC): 3.37 µM | TGI (A549 NSCLC): 12.9 µM | GI50 (ACHN renal): 0.182 µM | TGI (ACHN renal): 0.445 µM | GI50 (BT-549 breast): 0.838 µM | TGI (BT-549 breast): 2.13 µM | GI50 (CAKI-1 renal): 1.03 µM | TGI (CAKI-1 renal): 2.23 µM | GI50 (CCRF-CEM leukemia): 0.247 µM | TGI (CCRF-CEM leukemia): 0.75 µM | GI50 (COLO 205 colon): 0.459 µM | TGI (COLO 205 colon): 1.67 µM | GI50 (DU-145 prostate): 0.69 µM | TGI (DU-145 prostate): 1.99 µM | GI50 (EKVX NSCLC): 1.49 µM | TGI (EKVX NSCLC): 2.97 µM | GI50 (HCC-2998 colon): 1.74 µM | TGI (HCC-2998 colon): 3.3 µM | GI50 (HCT-116 colon): 0.295 µM | TGI (HCT-116 colon): 1.21 µM | GI50 (HCT-15 colon): 0.282 µM | TGI (HCT-15 colon): 1.19 µM | GI50 (HL-60(TB) leukemia): 0.728 µM | TGI (HL-60(TB) leukemia): 2.76 µM | GI50 (HOP-62 NSCLC): 3.04 µM | TGI (HOP-62 NSCLC): 12.1 µM | GI50 (HOP-92 NSCLC): 0.349 µM | TGI (HOP-92 NSCLC): 1.12 µM | GI50 (HS 578T breast): 3.68 µM | TGI (HS 578T breast): 22.6 µM | GI50 (HT29 colon): 0.695 µM | TGI (HT29 colon): 2.15 µM | GI50 (IGROV1 ovarian): 1.17 µM | TGI (IGROV1 ovarian): 2.64 µM | GI50 (K-562 leukemia): 0.948 µM | TGI (K-562 leukemia): 4.84 µM | GI50 (KM12 colon): 1.7 µM | TGI (KM12 colon): 3.43 µM | GI50 (LOX IMVI melanoma): 0.901 µM | TGI (LOX IMVI melanoma): 2.22 µM | GI50 (M14 melanoma): 0.944 µM | TGI (M14 melanoma): 2.44 µM | GI50 (MALME-3M melanoma): 1.4 µM | TGI (MALME-3M melanoma): 2.97 µM | GI50 (MDA-MB-231 breast): 1.22 µM | TGI (MDA-MB-231 breast): 2.65 µM | GI50 (MDA-MB-435): 1 µM | TGI (MDA-MB-435): 2.39 µM | GI50 (MOLT-4 leukemia): 0.387 µM | TGI (MOLT-4 leukemia): 2 µM | GI50 (NCI-H226 lung): 2.48 µM | TGI (NCI-H226 lung): 6.74 µM | GI50 (NCI-H23 lung): 1.78 µM | TGI (NCI-H23 lung): 3.71 µM | GI50 (NCI-H460 lung): 3.66 µM | TGI (NCI-H460 lung): 14 µM | GI50 (NCI/ADR-RES ovarian): 3.05 µM | TGI (NCI/ADR-RES ovarian): 14 µM | GI50 (OVCAR-3 ovarian): 0.491 µM | TGI (OVCAR-3 ovarian): 1.69 µM | GI50 (OVCAR-4 ovarian): 1.29 µM | TGI (OVCAR-4 ovarian): 3.03 µM | GI50 (OVCAR-5 ovarian): 1.48 µM | TGI (OVCAR-5 ovarian): 3.13 µM | GI50 (OVCAR-8 ovarian): 1.66 µM | TGI (OVCAR-8 ovarian): 3.85 µM | GI50 (PC-3 prostate): 2 µM | TGI (PC-3 prostate): 4.07 µM | GI50 (RPMI-8226 leukemia): 1.41 µM | TGI (RPMI-8226 leukemia): 4.92 µM | GI50 (RXF 393 renal): 0.874 µM | TGI (RXF 393 renal): 2.13 µM | GI50 (SF-268 CNS): 1.69 µM | TGI (SF-268 CNS): 3.4 µM | GI50 (SF-295 CNS): 5.73 µM | TGI (SF-295 CNS): 19.1 µM | GI50 (SF-539 CNS): 0.271 µM | TGI (SF-539 CNS): 1.08 µM | GI50 (SK-MEL-2 melanoma): 1.83 µM | TGI (SK-MEL-2 melanoma): 3.94 µM | GI50 (SK-MEL-28 melanoma): 0.822 µM | TGI (SK-MEL-28 melanoma): 2.21 µM | GI50 (SK-MEL-5 melanoma): 1.74 µM | TGI (SK-MEL-5 melanoma): 3.12 µM | GI50 (SK-OV-3 ovarian): 9.78 µM | TGI (SK-OV-3 ovarian): 21.4 µM | GI50 (SN12C renal): 1.64 µM | TGI (SN12C renal): 3.79 µM | GI50 (SNB-19 CNS): 3.39 µM | TGI (SNB-19 CNS): 13 µM | GI50 (SNB-75 CNS): 1.25 µM | TGI (SNB-75 CNS): 2.5 µM | GI50 (SR leukemia): 0.251 µM | TGI (SR leukemia): 1.18 µM | GI50 (SW-620 colon): 0.423 µM | TGI (SW-620 colon): 1.54 µM | GI50 (TK-10 renal): 1.24 µM | TGI (TK-10 renal): 2.53 µM | GI50 (U251 CNS): 2.02 µM | TGI (U251 CNS): 4.43 µM | GI50 (UACC-257 melanoma): 1.47 µM | TGI (UACC-257 melanoma): 3 µM | GI50 (UACC-62 melanoma): 1.26 µM | TGI (UACC-62 melanoma): 2.65 µM | GI50 (UO-31 renal): 1.22 µM | TGI (UO-31 renal): 2.51 µM
